Measured values published in article PMC8419391 (Journal of Pharmaceutical Investigation, 2021).
Values after ≈ are worked out from the molar mass of the structure shown. Read-outs that look alike come from different tables or passages of the source.

Assays:
[1] = biological target: papain-like proteinase (PLpro) (Severe acute respiratory syndrome coronavirus 2, UniProt P0DTD1); test: Papain-like proteinase; assay type: biochemical, SARS-CoV2; conditions: read-out: PLpro (Inhibition %)
[2] = biological target: SARS-CoV2 RBD / ACE2 protein complex (Severe acute respiratory syndrome coronavirus 2, UniProt P0DTC2); test: Spike protein RBD-ACE2 complex formation ELISA; assay type: binding
ACE2 protein = ACE2 protein (Homo sapiens, UniProt Q9BYF1); test: ACE2 binding
SARS-CoV2 = test: microbe, parasite or virus in culture; assay type: cell-based; conditions: for EC50: Severe acute respiratory syndrome coronavirus 2, Vero C1008
SARS-CoV2 ORF gene = assay type: cell-based
BetaCoV E-gene = assay type: cell-based, SARS-CoV2
BetaCoV RdRp gene = assay type: cell-based, SARS-CoV2
human red blood cells = test: Red blood cells toxicity; assay type: cell-based; conditions: Erythrocyte, 1 h, read-out: RBC IC50 (µg/ml)
[3] = tested on: Peripheral blood mononuclear cells (PBMC); test: Peripheral blood mononuclear cells toxicity; assay type: cell-based; conditions: Homo sapiens, 24 h, read-out: PBMC IC50 (µg/ml)
[4] = tested on: klebsila pneumonia ATCC700603; test: Agar well diffusion assay; assay type: cell-based
[5] = tested on: Staphylococcus aureus ATCC25923; test: Agar well diffusion assay; assay type: cell-based
[6] = tested on: Streptococcus pyogenes EMCC1772; test: Agar well diffusion assay; assay type: cell-based
Candida albicans EMCC105 [7] = test: Agar well diffusion assay; assay type: cell-based
[8] = tested on: klebsila pneumonia ATCC700603; test: Turbidity assay; assay type: cell-based
[9] = tested on: Staphylococcus aureus ATCC25923; test: Turbidity assay; assay type: cell-based
[10] = tested on: Streptococcus pyogenes EMCC1772; test: Turbidity assay; assay type: cell-based
Candida albicans EMCC105 [11] = test: Turbidity assay; assay type: cell-based
white blood cells (WBC) = test: Elimination of HCQ toxicity: HCQ induced WBC cytotoxicity; assay type: cell-based; conditions: HCQ 200 µg/ml
red blood cells = test: Elimination of HCQ toxicity: HCQ induced RBC hemolysis; conditions: HCQ 27.5 µg/ml
[12] = In vivo HCQ toxicity elimination: CBC profile and blood chemistry; conditions: mice, oral
Antioxidant activity = conditions: DPPH, 30 min in the dark
[13] = ref Zou et al. [2020], cited from earlier work

Chain of ACE2 protein (Q9BYF1 18-805): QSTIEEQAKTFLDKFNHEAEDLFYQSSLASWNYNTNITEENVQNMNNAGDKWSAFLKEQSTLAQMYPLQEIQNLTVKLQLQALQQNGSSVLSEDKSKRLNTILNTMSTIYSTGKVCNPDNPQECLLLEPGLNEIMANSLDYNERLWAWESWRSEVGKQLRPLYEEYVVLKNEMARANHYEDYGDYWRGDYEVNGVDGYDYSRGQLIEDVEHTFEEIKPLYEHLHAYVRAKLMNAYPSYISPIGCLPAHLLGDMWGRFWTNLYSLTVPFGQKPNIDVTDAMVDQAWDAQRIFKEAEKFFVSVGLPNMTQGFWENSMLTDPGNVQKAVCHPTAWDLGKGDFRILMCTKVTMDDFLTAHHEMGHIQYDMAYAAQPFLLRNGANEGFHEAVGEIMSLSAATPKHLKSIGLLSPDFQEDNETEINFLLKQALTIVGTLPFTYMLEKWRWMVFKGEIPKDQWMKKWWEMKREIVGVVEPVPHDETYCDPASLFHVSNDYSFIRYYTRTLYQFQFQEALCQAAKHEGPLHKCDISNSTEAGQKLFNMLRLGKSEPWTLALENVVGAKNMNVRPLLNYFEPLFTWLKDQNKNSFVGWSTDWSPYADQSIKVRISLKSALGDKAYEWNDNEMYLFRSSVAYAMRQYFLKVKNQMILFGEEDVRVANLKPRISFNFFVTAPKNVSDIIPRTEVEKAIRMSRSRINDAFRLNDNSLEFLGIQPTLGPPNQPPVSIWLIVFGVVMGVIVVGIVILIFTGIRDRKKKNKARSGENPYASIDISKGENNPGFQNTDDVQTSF

Which inhibition at 62.5 µg/mL [1] does the source give for `COc1ccc2cc3[n+](cc2c1OC)CCc1cc2c(cc1-3)OCO2` [BER, Berberine chloride hydrate] here?
The inhibition at 62.5 µg/mL was 49.8 ± 0.19%.

What about the inhibition at 126 µg/mL [1] of the same compound?
Its inhibition at 126 µg/mL is 65.89 ± 0.17%.

And the inhibition at 252 µg/mL [1]?
The inhibition at 252 µg/mL was 78.93 ± 0.36%.

What about the inhibition at 504 µg/mL [1] of the same compound?
The inhibition at 504 µg/mL was 84.8 ± 0.12%.

And the inhibition at 1008 µg/mL [1]?
The inhibition at 1008 µg/mL was 93.26 ± 0.73%.

And the “Spike protein- RBD- complex formation (Fold change)” value ([2]; 62.5 µg/ml)?
Its value is 03.88 ± 0.08 Fold change.

What about the “Spike protein- RBD- complex formation (Fold change)” value ([2]; 126 µg/ml) of the same compound?
Its value is 08.00 ± 0.10 Fold change.

And the “Spike protein- RBD- complex formation (Fold change)” value ([2]; 252 µg/ml)?
Its value is 08.50 ± 0.00 Fold change.

What about the “Spike protein- RBD- complex formation (Fold change)” value ([2]; 504 µg/ml) of the same compound?
Its value is 16.13 ± 0.20 Fold change.

And the “Spike protein- RBD- complex formation (Fold change)” value ([2]; 1008 µg/ml)?
The value was 16.13 ± 0.03 Fold change.

What about the “ACE2 (Binding %)” value (ACE2 protein; 62.5 µg/ml) of the same compound?
The value was 13.10 ± 0.07%.

What about the “ACE2 (Binding %)” value (ACE2 protein; 126 µg/ml) of the same compound?
The value was 13.10 ± 0.90%.

What about the “ACE2 (Binding %)” value (ACE2 protein; 252 µg/ml) of the same compound?
The value was 13.90 ± 1.10%.

What about the “ACE2 (Binding %)” value (ACE2 protein; 504 µg/ml) of the same compound?
Its value is 15.60 ± 1.60%.

What about the “ACE2 (Binding %)” value (ACE2 protein; 1008 µg/ml) of the same compound?
Its value is 15.60 ± 1.10%.

And the “Vero E6 reduction (%)” value (SARS-CoV2)?
Its value is 80.00 ± 1.7%.

And the EC50 (SARS-CoV2)?
The EC50 was 16.7 ± 0.01 mg/L.

And the EC50/IC50% (SARS-CoV2; antiviral EC50 relative to Vero E6 IC50)?
The EC50/IC50% was 32.9 ± 0.4%.

What about the “ORF gene down regulation (%)” value (SARS-CoV2 ORF gene; 2.5 µg/ml) of the same compound?
The value was 11.73 ± 0.1%.

And the ORF gene expression (SARS-CoV2 ORF gene; 2.5 µg/ml)?
Its ORF gene expression is 0.88 ± 0.001.

And the “ORF gene down regulation (%)” value (SARS-CoV2 ORF gene; 5 µg/ml)?
The value was 21.54 ± 0.2%.

What about the ORF gene expression (SARS-CoV2 ORF gene; 5 µg/ml) of the same compound?
Its ORF gene expression is 0.79 ± 0.003.

What about the “ORF gene down regulation (%)” value (SARS-CoV2 ORF gene; 10 µg/ml) of the same compound?
Its value is 60.22 ± 0.8%.

And the ORF gene expression (SARS-CoV2 ORF gene; 10 µg/ml)?
Its ORF gene expression is 0.39 ± 0.002.

And the “ORF gene down regulation (%)” value (SARS-CoV2 ORF gene; 20 µg/ml)?
The value was 86.69 ± 0.1%.

And the ORF gene expression (SARS-CoV2 ORF gene; 20 µg/ml)?
Its ORF gene expression is 0.13 ± 0.008.

What about the “E-gene down regulation (%)” value (BetaCoV E-gene; 2.5 µg/ml) of the same compound?
Its value is 89.77 ± 3.5%.

And the E-gene expression (BetaCoV E-gene; 2.5 µg/ml)?
Its E-gene expression is 0.102 ± 0.0003.

What about the “E-gene down regulation (%)” value (BetaCoV E-gene; 5 µg/ml) of the same compound?
Its value is 99.30 ± 1.8%.

And the E-gene expression (BetaCoV E-gene; 5 µg/ml)?
Its E-gene expression is 0.007 ± 0.0005.

What about the “E-gene down regulation (%)” value (BetaCoV E-gene; 10 µg/ml) of the same compound?
Its value is 99.70 ± 4.5%.

What about the E-gene expression (BetaCoV E-gene; 10 µg/ml) of the same compound?
Its E-gene expression is 0.003 ± 0.0001.

What about the “E-gene down regulation (%)” value (BetaCoV E-gene; 20 µg/ml) of the same compound?
Its value is 99.98 ± 3.9%.

And the E-gene expression (BetaCoV E-gene; 20 µg/ml)?
Its E-gene expression is 0.0002 ± 0.00001.

What about the “RdRp down regulation (%)” value (BetaCoV RdRp gene; 2.5 µg/ml) of the same compound?
The value was 76.67 ± 2.9%.

And the RdRp expression (BetaCoV RdRp gene; 2.5 µg/ml)?
The RdRp expression was 0.233 ± 0.001.

What about the “RdRp down regulation (%)” value (BetaCoV RdRp gene; 5 µg/ml) of the same compound?
Its value is 79.26 ± 3.5%.

And the RdRp expression (BetaCoV RdRp gene; 5 µg/ml)?
The RdRp expression was 0.207 ± 0.002.

And the “RdRp down regulation (%)” value (BetaCoV RdRp gene; 10 µg/ml)?
Its value is 94.95 ± 6.9%.

What about the RdRp expression (BetaCoV RdRp gene; 10 µg/ml) of the same compound?
Its RdRp expression is 0.050 ± 0.0003.

What about the “RdRp down regulation (%)” value (BetaCoV RdRp gene; 20 µg/ml) of the same compound?
The value was 99.89 ± 3.8%.

And the RdRp expression (BetaCoV RdRp gene; 20 µg/ml)?
Its RdRp expression is 0.001 ± 0.00009.

And the IC50 (human red blood cells)?
Its IC50 is 1349 ± 10.3 µg/mL.

And the IC50 [3]?
The IC50 was 22.2 ± 0.9 µg/mL.

And the MIC [4]?
The MIC was 1850 mg/L.

And the MIC [5]?
The MIC was 926 mg/L.

And the MIC [6]?
The MIC was 463 mg/L.

What about the MIC (Candida albicans EMCC105 [7]) of the same compound?
Its MIC is 1850 mg/L.

And the MIC [8]?
Its MIC is 463 mg/L.

What about the MIC [9] of the same compound?
The MIC was 463 mg/L.

What about the MIC [10] of the same compound?
The MIC was 463 mg/L.

And the MIC (Candida albicans EMCC105 [11])?
Its MIC is 463 mg/L.

What about the “prevention of HCQ cytotoxic effect towards WBC” value (white blood cells (WBC)) of the same compound?
Its value is roughly 6.7 folds.

What about the “decrease of the hemolytic activity induced by HCQ” value (red blood cells) of the same compound?
The value was 42.85%.

And the “prevention of HCQ adverse effect on co-administration with HCQ” value ([12]; blood chemistry)?
Its value is “moderately prevented”.

What about the “effect on normal CBC parameters” value ([12]; p < 0.05) of the same compound?
The value was “did not affect normal CBC parameters”.

Which results are given for `CCN(CCO)CCCC(C)Nc1ccnc2cc(Cl)ccc12` (stereo not drawn) [HCQ, hydroxychloroquine]?
inhibition at 12.5 µg/mL [1]: 8.1 ± 0.74%; inhibition at 25 µg/mL [1]: 11.2 ± 0.39%; inhibition at 50 µg/mL [1]: 22.5 ± 0.15%; inhibition at 100 µg/mL [1]: 30 ± 0.23%; inhibition at 200 µg/mL [1]: 37 ± 0.42%; ACE2 (Binding %) (ACE2 protein; 12.5 µg/ml): 09.02 ± 0.50%; ACE2 (Binding %) (ACE2 protein; 200 µg/ml): 15.60 ± 1.40%; EC50/IC50% (SARS-CoV2): 27.5 ± 0.9%; Vero E6 reduction (%) (SARS-CoV2): 76.00 ± 1.8%; EC50 (SARS-CoV2): 0.39 ± 0.009 mg/L (≈ 1.16 µM); IC50 (human red blood cells): 52 ± 0.9 µg/mL (≈ 155 µM); IC50 [3]: 3.2 ± 0.3 µg/mL (≈ 9.53 µM); Antioxidants IC50 (Antioxidant activity): 362.7 ± 6.7 mg/L; oral dose reaching the blood ([13]; oral): about 50%; accumulation in brain and spinal cord tissue, times higher than plasma level [13]: 30 times; accumulation in the liver and lung, times higher than plasma concentration [13]: 700 times
